# What was measured:
# P-gp = P-gp (Homo sapiens, UniProt P08183); conditions: literature reference 29; cited from earlier work
# [1] = tested on: organotypic nasal polyp explants
# P-gp, sequence (P08183 whole entry): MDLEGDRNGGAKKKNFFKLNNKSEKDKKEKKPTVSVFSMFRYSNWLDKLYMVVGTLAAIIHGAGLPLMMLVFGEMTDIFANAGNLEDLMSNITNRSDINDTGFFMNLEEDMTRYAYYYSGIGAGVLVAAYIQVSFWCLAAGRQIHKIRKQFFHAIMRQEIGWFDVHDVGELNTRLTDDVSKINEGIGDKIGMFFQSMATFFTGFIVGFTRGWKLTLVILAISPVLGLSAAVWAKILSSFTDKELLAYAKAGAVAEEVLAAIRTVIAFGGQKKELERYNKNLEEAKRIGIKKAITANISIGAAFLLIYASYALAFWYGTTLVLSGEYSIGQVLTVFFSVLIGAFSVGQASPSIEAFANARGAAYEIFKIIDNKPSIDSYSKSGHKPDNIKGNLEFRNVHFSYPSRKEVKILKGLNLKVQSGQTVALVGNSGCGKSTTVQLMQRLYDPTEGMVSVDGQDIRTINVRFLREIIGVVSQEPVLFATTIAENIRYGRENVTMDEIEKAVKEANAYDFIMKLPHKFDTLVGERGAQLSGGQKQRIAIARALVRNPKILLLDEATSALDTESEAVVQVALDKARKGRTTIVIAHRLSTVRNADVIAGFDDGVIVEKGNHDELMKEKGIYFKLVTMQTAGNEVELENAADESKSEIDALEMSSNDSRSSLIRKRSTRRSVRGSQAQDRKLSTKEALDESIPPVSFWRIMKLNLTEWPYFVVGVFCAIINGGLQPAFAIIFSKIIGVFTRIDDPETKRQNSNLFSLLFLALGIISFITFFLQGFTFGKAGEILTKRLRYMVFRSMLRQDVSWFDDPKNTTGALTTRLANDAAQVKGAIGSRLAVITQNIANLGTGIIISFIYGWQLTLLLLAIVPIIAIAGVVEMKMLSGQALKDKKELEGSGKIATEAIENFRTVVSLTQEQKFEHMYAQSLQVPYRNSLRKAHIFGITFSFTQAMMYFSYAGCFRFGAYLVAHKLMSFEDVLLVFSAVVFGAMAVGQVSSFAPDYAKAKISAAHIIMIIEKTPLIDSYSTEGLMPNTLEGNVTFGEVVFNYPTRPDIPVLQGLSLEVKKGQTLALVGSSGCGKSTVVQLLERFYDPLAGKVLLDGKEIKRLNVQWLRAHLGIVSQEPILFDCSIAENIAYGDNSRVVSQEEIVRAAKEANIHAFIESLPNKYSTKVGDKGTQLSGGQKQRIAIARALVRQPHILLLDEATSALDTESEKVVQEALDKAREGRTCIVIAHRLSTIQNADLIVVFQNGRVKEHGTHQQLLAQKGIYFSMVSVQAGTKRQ
SMILES,affinity for P-gp (P-gp),tissue mometasone retention in polyps versus lower P-gp expressing turbinates [1],"reduction in mometasone retention between the lowest and highest P-gp expressing polyp explants ([1]; human, not told, 60 min) [fold]",P-gp substrate status ([1]; not told)
CCCC1O[C@@H]2C[C@H]3[C@@H]4CCC5=CC(=O)C=C[C@]5(C)[C@H]4[C@@H](O)C[C@]3(C)[C@]2(C(=O)CO)O1 (stereo partly shown) [budesonide],high affinity,,,
"C[C@@H]1C[C@H]2[C@@H]3CCC4=CC(=O)C=C[C@]4(C)[C@@]3(Cl)[C@@H](O)C[C@]2(C)[C@@]1(OC(=O)c1ccco1)C(=O)CCl [mometasone, [(8S,9R,10S,11S,13S,14S,16R,17R)-9-chloro-17-(2-chloroacetyl)-11-hydroxy-10,13,16-trimethyl-3-oxo-6,7,8,11,12,14,15,16-octahydrocyclopenta[a]phenanthren-17-yl]furan-2-carboxylate]",,significantly lower,~6,substrate of P-gp

# From patent US20230226008A1 (Massachusetts Eye and Ear Infirmary, priority 2020, published 2023)
